The results in this text go back to patent US20160316750A1, “Compounds, Compositions and Methods for Attracting and/or Arresting Bed Bugs” (priority 2013, published 2016).

The test system of one test is bed bugs. As to the kind of experiment: shelter traps in a heavily infested residential apartment (Room 106). Type of test: in vivo, Cimex lectularius. The note with it: 24-h periods; for Mean ± SE number insects in baited shelter: Exp. 76-79, paired shelters; for Mean (± SE) number insects in control shelter: Exp. 76-79, unbaited shelter paired with the baited shelter.

Test [1] concerns Cimex lectularius. As to the kind of experiment: three-dish, dual-choice olfactometer bioassay. Type of test: in vivo. The source says: Bioassays were run in dual-choice olfactometers and in large Plexiglass arenas (FIG. 1). Dual-choice olfactometers consisted of two lateral Pyrex® glass Petri dishes, connected to a central dish (all dishes 3×9 cm inner diameter) via a Pyrex® glass tube (2.5 cm long×2 cm inner diameter). The dishes in this olfactometer mimic the natural still-air shelters in which bed bugs spend the day. Prior to the start of bioassays, a disc of paper towelling (9 cm diameter) was placed into each dish and a strip of paper towelling (2.4×0.6 cm) was inserted into the connecting glass tubing to provide traction for walking bed bugs. In addition, a piece of filter paper (2×3 cm; Whatman) was placed into each lateral dish and covered with a piece of cardboard (2×2 cm) as a refuge for bioassay insects.
Treatment and control stimuli were randomly assigned to each lateral dish. Olfactometers were enclosed in opaque plastic bins to prevent light from entering and affecting the insects' response. For each replicate, a single 3rd, 4th or 5th instar C. lectularius nymph was released into the central chamber of the olfactometer, which was then covered with a glass plate to prevent escape. The single bed bugs in each olfactometer were then allowed to explore all chambers. Each insect was released into an olfactometer at the end of the 14-h photophase allowing it to explore the chambers during 10 h of darkness, and to come to rest in one of the shelters during 10 h of light. After this 20-h period, the insect's position within the olfactometer was recorded. Any insects not found in a lateral chamber were recorded as non-responders. All experimental replicates were run at 24±2° C. and 30-60% RH. Olfactometers were washed with Sparkleen detergent (Fisher Scientific Co, Pittsburgh, Pa., USA), and were oven-dried (Precision, Winchester, Va., USA) between each bioassay.
To determine whether a blend of the 15 bed bug feces volatiles that were identified in bed bug feces (see EXAMPLE 11) attracts bed bugs and thus contains one or more bed bug pheromone components, the synthetic blend (SB) was tested at a medium dose (50 μg; Experiment 45), a low dose (5 μg; Experiment 46), and a very low dose (0.5 μg; Experiment 47) for the response of bed bugs in three-dish, dual-choice olfactometers (see EXAMPLE 2, FIG. 1). At each dose tested, all components were formulated in equal amounts in mineral oil which was pipetted into the inverted lid of a 4-ml vial. The vial was then placed on top of the corrugated cardboard shelter (see FIG. 1) in the randomly assigned treatment dish of the olfactometer (see EXAMPLE 2). The control stimulus consisted of the same type of lid on the corrugated cardboard of the control dish of the olfactometer containing mineral oil without synthetic test chemicals.

Test [2] concerns Cimex lectularius. The experiment in a line: large Plexiglass arena bioassay with baited and control shelters. The format is in vivo. Conditions: adult males. An excerpt: The large two-chamber Plexiglass arena (180 cm long×12 cm high×13 cm wide) was designed with a central divider (180 cm long×5.5 cm high) to accommodate two pieces of wood (162 cm long×3.8 cm wide×0.8 cm high), each piece for testing the response of a single bed bug to a pheromone-baited shelter or a control shelter (see insert in FIG. 1,b) which were randomly assigned to either end of the wood. […] For each replicate, a single bed bug was placed in the center of the wood piece just prior to the end of the 14-h photophase, and its position was scored the next morning after the onset of the photophase.
Experiments 68-75 also investigated the effect of the volatile pheromone components (VPCs) (E)-2-hexenal, (E)-2-octenal, dimethyl disulfide, dimethyl trisulfide and 2-hexanone, and the effect of the less-volatile pheromone component histamine (H), on attraction and arrestment of bed bugs. Treatment stimuli consisted of filter paper (4×2.2 cm) impregnated with H (2,000 μg) and covered with a piece of corrugated cardboard shelter (3×2.2 cm), and of VPCs formulated at a high dose (500 μg; Experiments 68-74) or a medium dose (50 μg; Experiment 75) in mineral oil (0.5 ml) and pipetted into the inverted lid of a 20-ml scintillation vial resting on top of the shelter (FIG. 1). Control stimuli were of identical design but the filter paper contained no H, and the mineral oil contained no VPCs.

[3] abbreviates: baited shelter 1 vs unbaited shelter 2, VPCs 500 μg, histamine 2,000 μg.

Text for bed bugs: To determine whether bed bugs responded to synthetic pheromone lures not only in large arena laboratory bioassays but also in infested premises (residential apartments), we placed pheromone-baited shelter traps (see FIG. 1) in apartments with known or suspected bed bug infestations. […] Based on 24-hour trapping results in multiple apartments, we selected a single, heavily infested apartment (hereafter referred to as Room 106) for further testing of synthetic bed bug pheromone lures.
Replicates (n=15-20) of each experiment consisted of paired shelters placed against a wall or furniture, with approximately 30-cm spacing between paired shelters and >1 m spacing between shelter pairs. For each shelter pair within each experiment, pheromone and control treatments were randomly assigned, and placement of replicates was alternated between the two experiments of Set 1 and Set 2. Because not more than 10 shelter pairs could be accommodated in Room 106 at any time, experimental data were collected over several consecutive 24-h periods. Every morning at 9:00, shelters were collected from Room 106 and immediately placed into separate labelled zipper lock bags which were then put on dry ice to kill the bed bugs that had entered a shelter. Bed bugs in each shelter were later counted in the laboratory under a microscope, noting their developmental stage (1st, 2nd, 3rd, 4th instar, adult), sex (male, female), and evidence (or not) for blood feeding prior to entry into a shelter Immediately following the removal of bed bug shelters from Room 106 each morning, new pre-prepared shelters were pheromone-baited (treatment) or not (control) and their position within shelter pairs randomly assigned (see above), again alternating placement of shelter pairs between Experiments 76 and 77 (Set 1) and between Experiments 78 and 79 (Set 2).

With `NCCc1c[nH]cn1` [H, histamine], the “Mean ± SE number insects in baited shelter” value is listed as 6.06 ± 1.28 in the test with bed bugs and 6.06 in the test on bed bugs (listed as histamine). For the same compound, the “Mean (± SE) number insects in control shelter” value in the test with bed bugs came out at 4.53 ± 1.8; in the test on bed bugs (listed as histamine) it was 4.53. Also, the “No. insects not responding” value with Cimex lectularius [1] (Exp. 23-37, nymphs, bait amounts in micrograms) was determined as 3; with Cimex lectularius [2] (setting [3]), 5. In addition, in the test on Cimex lectularius [1] (Exp. 23-37, nymphs, bait in the other chamber, amounts in micrograms), the “No. insects in control chamber” value was 10. Also, the “No. insects in bait chamber” value in the test with Cimex lectularius [1] (Exp. 23-37, nymphs, numbers in parentheses of the bait = amounts in micrograms) turned out to be 35. Further, the “arrestment response by form of histamine (in words)” value in the test on Cimex lectularius [1] (Experiments 26-28, dimethylaminoethanol 20 μg and histamine 20 μg as base, salt or base and salt) is given as “only as a base elicits the bed bugs' arrestment response”. In addition, the “bioactivity alone (in words)” value with Cimex lectularius [1] (Experiments 36-37, alone at 200 μg, nymphs) was “bioactive on its own”. In addition, the “No. insects in shelter 2” value in the test with Cimex lectularius [2] (Exp. 72, H (2,000 μg) in shelter 2 vs VPC (500 μg) in shelter 1) was 14; in the test with Cimex lectularius [2] (Exp. 74, H (2,000 μg) in shelter 2 vs VPC (500 μg) + H in shelter 1), 5; with Cimex lectularius [2] (Exp. 75, H (2,000 μg) in shelter 2 vs VPC (50 μg) + H in shelter 1), 0; with Cimex lectularius [2] (unbaited shelter 2, bait in shelter 1, VPCs 500 μg, histamine 2,000 μg), 1; in the test with Cimex lectularius [2] (unbaited shelter 2, bait in shelter 1, VPCs 500 μg, histamine 2,000 μg, listed as histamine), “one”. For the same compound, the “No. insects in shelter 1” value in the test on Cimex lectularius [2] (setting [3]) amounted to 12.
